Type in all cases: binding
One test has as its target Kappa opioid receptor (Homo sapiens, UniProt P41145). The test can be described thus: Opioid receptor affinity, NIMH PDSP screen, Kappa subtype. The protocol:
(§1) The compound of Example 7 was tested for activity vs. opioid receptor subtypes, at an initial concentration of 10 μM, through the NIMH Psychoactive Drug Screening Program (PDSP), operated by Dr. Bryan Roth and his colleagues in the Department of Pharmacology at the University of North Carolina (Chapel Hill, N.C.) through an agreement with the National Institute of Mental Health (NIMH).

For the next test, the target named is Mu opioid receptor (Homo sapiens, UniProt P35372). The test can be described thus: Opioid receptor affinity, NIMH PDSP screen, Mu subtype. As for the experimental part: as §1
Another test addresses Delta opioid receptor (Homo sapiens, UniProt P41143). The test can be described thus: Opioid receptor affinity, NIMH PDSP screen, Delta subtype. The protocol:
as §1

The record followed here is patent US9284291B2, “Kappa opioid receptor compounds” (MediSynergies, LLC, priority 2014, dated 2016).

Chain of Kappa opioid receptor (P41145 whole entry): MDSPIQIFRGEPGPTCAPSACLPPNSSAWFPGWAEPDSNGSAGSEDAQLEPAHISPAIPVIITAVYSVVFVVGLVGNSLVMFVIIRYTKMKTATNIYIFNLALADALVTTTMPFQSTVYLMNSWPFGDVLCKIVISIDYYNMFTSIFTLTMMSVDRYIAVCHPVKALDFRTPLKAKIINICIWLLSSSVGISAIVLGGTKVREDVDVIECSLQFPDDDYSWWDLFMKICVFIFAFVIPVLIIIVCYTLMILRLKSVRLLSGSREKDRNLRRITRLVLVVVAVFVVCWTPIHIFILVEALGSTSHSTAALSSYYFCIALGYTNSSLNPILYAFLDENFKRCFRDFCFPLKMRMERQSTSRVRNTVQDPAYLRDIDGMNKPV
Chain of Delta opioid receptor (P41143 whole entry): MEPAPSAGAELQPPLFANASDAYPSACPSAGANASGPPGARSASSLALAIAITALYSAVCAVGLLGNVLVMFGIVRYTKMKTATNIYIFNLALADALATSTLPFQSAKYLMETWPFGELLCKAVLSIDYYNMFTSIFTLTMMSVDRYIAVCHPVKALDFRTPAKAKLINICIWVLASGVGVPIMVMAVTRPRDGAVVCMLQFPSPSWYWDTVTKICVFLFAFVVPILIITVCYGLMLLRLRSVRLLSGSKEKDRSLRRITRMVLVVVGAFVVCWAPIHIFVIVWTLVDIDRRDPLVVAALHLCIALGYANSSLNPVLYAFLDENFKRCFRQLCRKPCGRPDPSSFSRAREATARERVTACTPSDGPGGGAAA
Chain of Mu opioid receptor (P35372 whole entry, species assumed): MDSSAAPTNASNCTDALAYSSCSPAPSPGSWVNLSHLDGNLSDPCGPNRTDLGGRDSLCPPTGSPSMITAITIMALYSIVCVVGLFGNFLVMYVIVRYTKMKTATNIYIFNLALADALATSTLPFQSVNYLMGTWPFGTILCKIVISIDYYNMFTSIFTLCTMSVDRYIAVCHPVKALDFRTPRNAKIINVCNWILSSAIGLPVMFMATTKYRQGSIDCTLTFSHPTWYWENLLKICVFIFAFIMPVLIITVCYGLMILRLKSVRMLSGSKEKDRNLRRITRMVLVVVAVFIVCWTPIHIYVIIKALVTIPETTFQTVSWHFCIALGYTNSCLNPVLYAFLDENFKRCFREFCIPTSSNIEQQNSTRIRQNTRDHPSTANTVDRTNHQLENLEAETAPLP

`CN(C)CCCC1(c2ccc(F)cc2)OCc2cc(-c3ncc[nH]3)ccc21` (stereo not shown) [Example 7] showed an inhibition constant Ki at Kappa opioid receptor of 47 nM. Besides, the figures for the inhibition at 10 µM on Kappa opioid receptor (10 μM), on Mu opioid receptor and at Delta opioid receptor were 100%, 39.1% and 23.5%, respectively.
